Reference: US12534696B2, “Systems and methods for immobilizing extracellular matrix material on organ on chip, multilayer microfluidics microdevices, and three-dimensional cell culture systems” (THE TRUSTEES OF THE UNIVERSITY OF PENNSYLVANIA, priority 2015, dated 2026)

Legend:
human lung fibroblasts [1] = assay: Serum-induced fibrosis in the biomimetic five-layer lung fibrosis model; assay type: cell-based; conditions: 2 μM PP2 added to medium 24 hours after assembly and maintained; cells cultured in 2D with 2% serum, then 0.2% in the model
human lung fibroblasts [2] = assay: Agent-induced injury (fibrotic response) in the five-layer biomimetic lung model; assay type: cell-based; conditions: SHH added exogenously at 500 ng/ml
Experimental: In order to test whether the cells in the gel layer can be fed via the channels, one experiment was conducted with only cells in the gel layer (FIG. 39). In particular, human lung fibroblasts and THP-1 macrophage cells were included in the gel layer. The gel was created by adding collegen to physiological aqueous buffer. Additionally or alternatively, any aqueous buffer (e.g., phosphate buffered saline (PBS) buffer) can be used. The aqueous buffer can be kept at a concentration between 0.1 and 2 mg/ml and kept at 4° C. Human lung fibroblasts (100 K cells/ml) and THP-1 macrophage (50 K cells/ml) cells were added to the gel during the liquid phase. The side of the membranes facing the chamber slab (e.g. 242 and 251) were treated with sulfo-sanpah to promote collagen/ECM anchorage. The lower channel slab, lower membrane, and chamber slab were stacked. The gel was then pipetted into the chamber (e.g., 231). After the upper membrane and upper channel slab was placed on top, the biomimetic organ model was clamped and the biomimetic organ model was placed in the incubator at 37° C. The biomimetic organ model was incubated for five days. For continuous perfusion of culture medium at 200 μL/hr in each channel, FGM-2 can be used as the medium having a reduced serum (e.g., between 0-2% and 2%).
In this study, the development of the organ injury model was examined. […]

| Compound | effect on serum-induced fibrosis (FIG. 49) (human lung fibroblasts [1]) | induction of fibrotic response (FIG. 48) (human lung fibroblasts [2]) |
| --- | --- | --- |
| CC(C)(C)n1nc(-c2ccc(Cl)cc2)c2c(N)ncnc21 [PP2] | reduced fibrosis | – |
| sonic hedgehog [SHH] | – | a fibrotic response can be induced |
